{"source": "patent US20240074473A1", "about": "“METHOD FOR INDUCING HYPERTROPHIC MUSCLE FIBERS FOR INDUSTRIAL MEAT PRODUCTION” (Yeda Research and Development Co. Ltd., priority 2021, published 2024)", "key": {"primary mouse myoblasts [1]": {"test_system": "primary mouse myoblasts", "assay": "qRT-PCR gene expression in primary mouse myoblasts", "assay_type": "cell-based", "conditions": "co-treatment with ERKi and CaMKIIi", "experimental": "Quantitative real-time PCR (qRT-PCR). Total RNA was isolated using Tri-Reagent (SIGMA) according to the manufacturer's instructions. cDNA was synthesized with the High Capacity cDNA Reverse Transcription Kit (Applied Biosystems according to the manufacturer's instructions. qRT-PCR was performed with SYBR green PCR Master Mix (Applied Biosystems) using the StepOnePlus Real-time PCR system (Applied Biosystems). Values for specific genes were normalize to either Gapdh or Hprt housekeeping control as indicated in Figure legend. Expression was calculated using the ddCT method.\nFirst passage primary mouse derived myoblast were seeded in proliferation media, in equal number in 12-well tissue culture plates that were precoated with 10% Matrigel solution. Following 24 hours to allow for complete attachment, culture media was washed and replaced either with fresh proliferation media (PM), PM supplemented with 1 uM SCH 772984 (ERKi) or differentiation media (DM). After 24 hrs, cells were lysed and RNA was collected. Gene expression analysis was carried out using SYBR green qRT-PCR analysis."}, "primary mouse myoblasts [2]": {"test_system": "primary mouse myoblasts", "assay": "Cell motility of myoblasts", "assay_type": "cell-based", "conditions": "co-treatment with ERKi and CaMKIIi"}, "primary mouse myoblasts [3]": {"test_system": "primary mouse myoblasts", "assay": "Proliferation markers KI-67 and pH3 staining in primary mouse myoblasts", "assay_type": "cell-based", "conditions": "co-treatment of ERKi with CaMKIIi", "experimental": "(§1) Immunofluorescence staining. First passage primary myoblasts isolated from various strains (indicated in figure legends) were plated in 96-well plates or chamber slides and treated as previously described. The cells were fixed with ice cold 4% PFA in PBS for 10 minutes, permeabilized with 0.5% Triton X-100 in PBS for 6 minutes, and blocked in PBS with 0.025% tween, 10% normal horse serum and 10% normal goat serum for 1 hour at room temperature. Primary antibody incubation was done in blocking buffer overnight at 4 degrees, with the following antibodies: Myosin Heavy Chain (MyHC, MF20, DSHB hybridoma supernatant 1:10, or MY-32 ABCAM ab51263 1:400), Myogenin (MYOG sc-13137 SCBT 1:200), pHistone 3 (PH3, ab47297 ABCAM 1:1000), Ki-67 (Cell Marque #275R), RYR (ab2868 ABCAM 1:100), and pCaMKII (SIGMA SAB4504356 1:100). Cells were washed 3 times in PBS with 0.025% tween and then incubated with appropriate secondary antibodies in PBS 1 hour. Where indicated, nuclei were either labeled with DAPI (SIGMA D9542, 5 ug/ml) or Hoechst 33342 (Thermo scientific #62249, 1:2000). Fixed cells at 24 hours post treatment with indicated inhibitors were imaged using the Nikon Eclipse Ti2 microscope (further described in microscopy section). All analysis was performed on at least 1000 nuclei. […]"}, "CaMKII": {"test_system": "CaMKII", "assay": "Western blot of CaMKII activation (p-CaMKII T287) in myoblasts", "assay_type": "cell-based, mouse", "conditions": "co-treatment with ERKi and 5 uM KN93, 24 hrs", "experimental": "Western Blot analysis. Cultured cells and whole tissues extracts were prepared with RIPA buffer supplemented with protease inhibitor cocktail (SIGMA P8340), and phosphatase inhibitor cocktails (SIGMA P5726 and P0044). Western blotting was performed using the Mini-PROTEAN Tetra Cell electrophoresis system, and transferred to PVDF membranes. The following primary antibodies concentrations were used p-CAMKII 1:1000 (Abcam ab182647), CaMKII 1:1000 (Cell Signaling 3362), GAPDH 1:10,000 (Abcam ab181602), p-ERK1/2 1:20,000 (SIGMA M9692), ERK1/2 1:40,000 (SIGMA), Myosin Heavy Chain (MF-20 DSHB hybridoma supernatant 1:100) Horseradish peroxidase conjugated secondary anti-mouse, anti-rabbit or anti-goat was used to detect proteins (Jackson Immunology). Western blots were imaged using the Chemidoc Multiplex system (Bio-rad)."}, "primary mouse myoblasts [4]": {"test_system": "primary mouse myoblasts", "assay": "MYOG positive nuclei in primary mouse myoblasts (immunofluorescence)", "assay_type": "cell-based", "conditions": "co-treatment with 1 μM ERKi, 24 hrs; HX531 20 uM, Dantrolene 50 uM, BAPTA-AM 10 uM, KN93 5 uM", "experimental": "(§2) Isolation of and treatment of primary myoblasts. Primary mouse myoblasts were isolated from gastrocnemius muscle using trypsin-tissue dissociation. Briefly, muscle tissues were incubated in Trypsin B (0.25%, Biological Industries) and subjected to mechanical dissociation with a serological pipet. Supernatants were strained and centrifuged. Pellets were grown resuspended in BioAmf-2 media (Biological Industries, Israel) and plated on 10% Matrigel (BD Biosciences)-coated plates at 37° and 5% CO2. For all in vitro experiments, proliferation medium was Bio-Amf2 (Biological Industries, Israel) and Differentiation medium (DM) was DMEM 2% Horse Serum (HS) with 1% Pen/Strep. For fusion assays, cells were trypsinized with Trypsin C (0.05%, Biological Industries) and subjected to two rounds of preplating on uncoated plates to reduce the number of fibroblasts. Cells were plated at a density of 8×10^3 per well in 10% Matrigel-coated 96-well plates in proliferation medium for 24 hours. The following day, proliferation media was replaced either with proliferation media or with DM containing DMSO (Ctrl) or 1 μM ERK1/2 inhibitor (ERKi; SCH772984, Cayman Chemicals), […] RXR antagonist (RXRi; HX-531, Cayman Chemicals), […] Ryanodine receptor antagonist (RYRi; Dantrolene, Cayman Chemicals), 5 μM CaMKII inhibitor (CaMKIIi; KN93, Cayman Chemicals), or with DM for controls.\nImmunofluorescence staining. First passage primary myoblasts isolated from various strains (indicated in figure legends) were plated in 96-well plates or chamber slides and treated as previously described. The cells were fixed with ice cold 4% PFA in PBS for 10 minutes, permeabilized with 0.5% Triton X-100 in PBS for 6 minutes, and blocked in PBS with 0.025% tween, 10% normal horse serum and 10% normal goat serum for 1 hour at room temperature. Primary antibody incubation was done in blocking buffer overnight at 4 degrees, with the following antibodies: Myosin Heavy Chain (MyHC, MF20, DSHB hybridoma supernatant 1:10, or MY-32 ABCAM ab51263 1:400), Myogenin (MYOG sc-13137 SCBT 1:200), pHistone 3 (PH3, ab47297 ABCAM 1:1000), Ki-67 (Cell Marque #275R), RYR (ab2868 ABCAM 1:100), and pCaMKII (SIGMA SAB4504356 1:100). Cells were washed 3 times in PBS with 0.025% tween and then incubated with appropriate secondary antibodies in PBS 1 hour. Where indicated, nuclei were either labeled with DAPI (SIGMA D9542, 5 ug/ml) or Hoechst 33342 (Thermo scientific #62249, 1:2000). Fixed cells at 24 hours post treatment with indicated inhibitors were imaged using the Nikon Eclipse Ti2 microscope (further described in microscopy section). All analysis was performed on at least 1000 nuclei. For fixed cells following the timecourse with ERKi or DM (FIG. 1B), images were captured with an inverted Olympus IX83 microscope (further details in microscopy section). All imaging analysis were performed on at least 1000 cells."}, "primary mouse myoblasts [5]": {"test_system": "primary mouse myoblasts", "assay": "Fusion index of primary mouse myoblasts (MyHC immunostaining)", "assay_type": "cell-based", "conditions": "co-treatment with ERKi and 5 uM KN93; bi- and tri-nucleated MyHC+ cells maintained", "experimental": "as §2, §1\nQuantification of fusion index. Following immunostaining and imaging, a fusion index was quantified by manually identifying nuclei found in a MyHC positive cell with at least 2 nuclei. Then the values were expressed as a percentage of the total nuclei per field. Briefly, in Figures where fusion index is stratified into subgroups of fiber size, the nuclei number in MyHC positive cell was manually quantified in a given field and stratified into groups of mononucleated, bi-nucleated myotubes, myotubes with 3-10 nuclei and myotubes with greater than 10 nuclei. […] Fields were analyzed hourly, and nuclei per cell was quantified and stratified into mononucleated, bi-nucleated, tri-nucleated and cells with ≥4 nuclei."}, "[6]": {"assay": "Risk categorization of cell culture media ingredients", "excerpt": "Category 1: These cell culture media components are food ingredients/additives that are GRAS or permitted by federal regulation without limitation on use. Exemplary compounds in this category include innocuous ingredients such as sugars, pH buffers, water soluble vitamins, and common antioxidants such as tocopherols.\n(§3) Category 2: These cell culture media components are common dietary nutrients and are anticipated to have GRAS status for food use or be permitted by regulation for addition to food. Examples of such compounds include most of the inorganic salts and macronutrients that are present within the cell culture media. […] Majority of nutrients present within the poultry cell-based meat may be readily measured using common validated methods for food composition testing. Batch analyses of multiple lots of the finished product may be obtained to validate the above assumptions. In some instances, consideration of established safe levels (e.g., ADI, UL) derived from a relevant authoritative body (e.g., U.S. FDA, EFSA, JECFA, FSANZ, U.S. EPA) may be leveraged to support safety. If comparisons of anticipated dietary intakes relative to an authoritative reference intake value is used, consideration of additive intakes from all dietary sources may be considered. In the absence of an authoritative reference intake value, published NOAELs from animal toxicology studies may be used to evaluate safety using standard scientific procedures for food safety evaluation. A margin of exposure (MoE) of 100-fold or greater between the NOAEL and estimated dietary intakes from food exposures is typically considered adequate to support safety. in situations where the MoE is <100-fold, additional measures for further reduction of the media component may be necessary, or further characterization of intraspecies/interspecies differences in metabolism may be necessary. These situations also require careful consideration of the regulatory status on a case-by basis (e.g., premarket approval as a food additive or GRAS evaluation required).\nFor example, situations where the compound is not detectable in finished product or is present at equivalent levels in comparator foods, compounds that are thermo-labile and will be digested during cooking, and/or compounds that are expected to be digested to innocuous compounds following ingestion. Examples of compounds meeting the aforementioned conditions would include recombinant growth factors and serum components. For Category 3 substances a final consideration in the safety assessment process may involve hazard characterization of the potential for a substance to produce toxic biological effects outside of the endpoints measured in a sub-chronic rat toxicity study. Substances with biological activity may require additional hazard characterization related to reproductive and developmental toxicity, or immunotoxicity. Considerations for allergenicity, biological effects in humans (e.g., effects on blood pressure), and synergistic effects with other media components also may be evaluated. […] Examples of category 3 components include recombinant proteins and animal serum."}, "[7]": {"assay": "Margin of estimated intake below NOAEL of rat toxicity study", "assay_type": "in vivo", "excerpt": "as §3"}, "[8]": {"assay": "Maximum estimated dietary exposure to media ingredients per 100 g serving", "conditions": "assumption of complete transfer of media components to the finished product on a wt/wt basis"}, "[9]": {"conditions": "cell culture media ingredient used during meat production"}}, "note": "Like-named read-outs stand apart in the source and are kept apart here."}
{"compound": "COc1ccc(S(=O)(=O)N(CCO)c2ccccc2CN(C)C/C=C/c2ccc(Cl)cc2)cc1", "note": "[KN93]", "values": [{"measurement": "ERKi-induced elevation of Mymk expression", "setting": "primary mouse myoblasts [1]", "value": "partially suppressed"}, {"measurement": "Cell motility compared to ERKi-treated cells", "setting": "primary mouse myoblasts [2]", "value": "unchanged"}, {"measurement": "Cell cycle arrest (pH3 staining, p21 and p27 expression) compared to ERKi alone", "setting": "primary mouse myoblasts [3]", "value": "did not affect cell cycle arrest"}, {"measurement": "CaMKII activation (p-CaMKII T287)", "setting": "CaMKII", "value": "suppressed CaMKII activation"}, {"measurement": "Differentiation (percent of MYOG positive nuclei) on co-treatment with ERKi", "setting": "primary mouse myoblasts [4]", "value": "remained unaffected"}, {"measurement": "Formation of polynucleated myotubes", "setting": "primary mouse myoblasts [5]", "value": "suppressed"}]}
{"compound": "NCCO", "note": "[MONOETHANOLAMINE]", "values": [{"measurement": "Risk Assessment Category", "setting": "[6]", "value": 2}, {"measurement": "Intakes for a 65 kg adult below NOAEL", "setting": "[7]; rat NOAEL", "value": "kg adult are 128 fold"}, {"measurement": "Maximum Estimated Exposure per 100 g serving", "setting": "[8]", "value": 160, "unit": "mg"}]}
{"compound": "O.O.O.O.O.O.O=C([O-])CCC(=O)[O-].[Na+].[Na+]", "note": "[SODIUM SUCCINATE-2Na 6H20]", "values": [{"measurement": "Risk Assessment Category", "setting": "[6]; [9]", "value": 2}, {"measurement": "Intakes for a 65 kg adult below NOAEL", "setting": "[7]; NOAEL from 2 year rat study", "value": "are >1000 fold below"}, {"measurement": "Maximum Estimated Exposure per 100 g serving", "setting": "[8]", "value": 40, "unit": "mg"}]}
{"compound": "O=C(O)CCC(=O)O", "note": "[SUCCINIC ACID]", "values": [{"measurement": "Intakes for a 65 kg adult below NOAEL", "setting": "[7]; NOAEL from 2 year rat study", "value": "adult are 257-fold"}, {"measurement": "Maximum Estimated Exposure per 100 g serving", "setting": "[8]", "value": 200, "unit": "mg"}]}
{"compound": "O=[Se]([O-])[O-].[Na+].[Na+]", "note": "[SODIUM SELENITE (ANHY)]", "values": [{"measurement": "Risk Assessment Category", "setting": "[6]; [9]", "value": 2}, {"measurement": "Intakes for a 65 kg adult below NOAEL", "setting": "[7]; 13 week rat NOAEL", "value": "are 133-fold below 13"}, {"measurement": "Maximum Estimated Exposure per 100 g serving", "setting": "[8]", "value": 0.19, "unit": "mg"}]}
